Literature values in publication PMC6005628, “Molecular genetic characteristics of influenza A virus clinically isolated during 2011‐2016 influenza seasons in Korea” (Influenza and Other Respiratory Viruses, 2018).

Tested on: NA protein with single I222V/M substitution

**Q.** For `CCOC(=O)C1=C[C@@H](OC(CC)CC)[C@H](NC(C)=O)[C@@H](N)C1` [oseltamivir], which “resistance associated with NA substitution” value is on record?
**A.** The value was “marginal levels of resistance”.
